This is an account of results in patent publication US11406707B2, “STAT3 phosphorylation during graft-versus-host disease” (H. LEE MOFFITT CANCER CENTER AND RESEARCH INSTITUTE, INC., priority 2014, dated 2022).

One series has as its system iTregs and Tconvs. The series is described as follows: iTreg and Tconv expansion from DC-allostimulated naive CD4+ T cells. Type of series: cell-based, human. How it is done: To evaluate iTreg development, naive CD4^+ cells were isolated from nylon-wool-eluted T cells by magnetic-bead selection (Miltenyi Biotec), based on the positive expression of CD4 and lack of CD45RO, CD25, or both. In addition, CD127 staining of the naive CD4^+ cells was performed after the purification, to ensure depletion of natural Tregs from the cell product. Negligible amounts of CD127^-, CD25^Bright nTregs were observed after magnetic-bead purification. […] The T cells were harvested and surface stained on day 5 for CD3, -4, -25, and -127, followed by fixation and permeabilization (eBioscience), and then intracellular staining for Foxp3 [Liu, W., et al. (2006) J. Exp. Med. 203, 1701-1711; […]., et al. (2006) J. Exp. Med. 203, 1693-1700]. Tregs were characterized by gating on the live cells expressing surface CD3^+, CD4^+, and absence of CD127, followed by expression of Foxp3 and CD25^bright [Liu, W., et al. (2006) J. Exp. Med. 203, 1701-1711; […]., et al. (2006) J. Exp. Med. 203, 1693-1700]. The absolute number of iTregs and Tconv (CD4^+ CD25^-) cells was obtained by timed acquisition. The ratio of iTreg:Tconv was calculated based on the absolute number of each T-cell population.

A further series relates to CD8+ T cells. The series is described as follows: Evaluation of CD8 CTL capacity (CD107a, IFN-γ). Type of series: cell-based, human. To be noted: S3I-201 50 or 100 μM, day 5. How it is done: The naive CD8^+ T cells were purified by live cell sorting (CD4^− and CD45RO/CD25^−) and were stimulated with allogeneic moDCs (DC:T cell ratio of 1:30), with S3I-201 (50 or 100 μM) or DMSO added once on day 0. On day 5, the allosensitized CD8 T cells were harvested and stimulated with PMA/ionomycin in the presence of Golgi Stop and anti-CD107a, followed by surface CD8 and intracellular IFN-γ staining.

In series [1] the test system is DC-allosensitized T-cell proliferation. The series is described as follows: allo-MLR T-cell proliferation (colorimetric MTS assay, stimulation index). Type of series: cell-based, human. To be noted: for T-cell proliferation: day 5. How it is done: Allo-MLRs consisted of T cells stimulated by cytokine-mature moDCs (DC:T-cell ratio 1:30, 1×10^5 T cells per 100 μl medium in a 96-well plate, 37° C.). […] The allogeneic moDC stimulators were matured with a cytokine cocktail and terminally differentiated, eliminating the need for irradiation [Betts, B. C., et al. (2011) Blood 118, 5330-5339]. T-cell proliferation was quantified by a colorimetric assay (CellTiter 96 AQueous One Solution Cell Proliferation Assay [MTS]; Promega, Madison, Wis.) on day 5, per the manufacturer's instructions, with absorbance quantified at 490 nm [Betts, B. C., et al. (2011) Blood 118, 5330-5339]. The stimulation index was calculated by dividing the OD of the allo-MLR by the OD of T cells alone. PHA-stimulated T cells served as a positive control. Identical allo-MLRs were cultured with CAS 285986-31-4, to determine the dose-response effect of STAT5 inhibition on allostimulated T-cell growth. For these initial experiments, the cultures were analyzed on day 4 because of the early rapid T-cell proliferation among the STAT5 inhibitor-treated wells. The stimulation index was determined as described.

The subject of the next series is T cells. Description: T-cell viability by Live/Dead staining in treated allo-MLRs. Type of series: cell-based, human. How it is done:
Fluorochrome-conjugated mouse anti-human mAbs included anti-CD3, -CD4, -CD8, -CD25, -CD45RO, -CD107a, -CD127, -Foxp3, -pSTAT3/pY705, -pSTAT5/pY694, -IFN-, and -IL-17A (BD Biosciences, San Jose, Calif. USA; eBioscience; San Diego, Calif., USA; Invitrogen; Carlsbad, Calif., USA). Viability was assessed by Live/Dead staining (Invitrogen). Live events were acquired on FACSCalibur or LSRII (BD Biosciences) flow cytometers (FlowJo software, ver. 7.6.4; TreeStar, Ashland, Oreg., USA). Gates were defined by appropriate isotype controls. Naive T-cell sorting was performed on the FACSVantageDiVa (BD Biosciences). Where indicated, CD4^+ T cells were purified by magnetic-bead negative selection (Miltenyi Biotec, Auburn, Calif., USA).

A further series deals with T1, STAT3 Y705 (Homo sapiens, UniProt P40763).
T1 construct: endogenous in cells; host or cells: primary human T cells from healthy-donor PBMC, allostimulated by monocyte-derived dendritic cells
T1 sequence (P40763 whole entry): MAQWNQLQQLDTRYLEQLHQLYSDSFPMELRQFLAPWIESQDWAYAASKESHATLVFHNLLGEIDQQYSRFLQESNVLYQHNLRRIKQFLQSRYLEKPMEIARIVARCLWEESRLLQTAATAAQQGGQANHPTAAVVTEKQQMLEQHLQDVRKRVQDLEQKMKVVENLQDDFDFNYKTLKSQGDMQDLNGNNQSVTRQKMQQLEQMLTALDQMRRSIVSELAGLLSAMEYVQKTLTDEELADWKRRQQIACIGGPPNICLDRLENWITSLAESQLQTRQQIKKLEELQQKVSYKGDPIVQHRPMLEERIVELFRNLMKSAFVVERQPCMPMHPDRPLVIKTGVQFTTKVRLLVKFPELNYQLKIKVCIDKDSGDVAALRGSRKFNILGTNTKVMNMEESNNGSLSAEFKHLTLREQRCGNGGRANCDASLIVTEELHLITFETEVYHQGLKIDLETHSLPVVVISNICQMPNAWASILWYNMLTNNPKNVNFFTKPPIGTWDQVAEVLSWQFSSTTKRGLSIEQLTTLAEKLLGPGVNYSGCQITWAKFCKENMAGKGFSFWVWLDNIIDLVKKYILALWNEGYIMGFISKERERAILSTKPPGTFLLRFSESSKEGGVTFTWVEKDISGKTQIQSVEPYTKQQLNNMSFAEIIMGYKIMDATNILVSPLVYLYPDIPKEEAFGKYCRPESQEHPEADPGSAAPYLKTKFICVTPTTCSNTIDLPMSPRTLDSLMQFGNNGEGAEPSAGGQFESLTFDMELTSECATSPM
The series is described as follows: IL-6-STAT3 Y705 phosphorylation in DC-allostimulated donor T-cells. Type of series: cell-based. To be noted: S3I-201 50 uM, 4 hours, IL-6 pulse. How it is done:
(§1) T-cells were serum-starved in RPMI treated with DMSO diluent control, rapamycin 100 ng/ml (EMD Millipore, Billerica, Mass. USA), or STAT3 inhibitor S3I-201 50 uM (H. Lee Moffitt Cancer Center, Drug Discovery Core) for 4 hours. For the STAT3 experiments, the T-cells were first DC-allostimulated (DC:T-cell ratio of 1:30) for 3 days to optimize surface expression of IL-6 receptor alpha and STAT3 signaling among healthy volunteers. The T-cells were then cytokine-pulsed for 15 minutes with either IL-2 (R&D Systems) to activate the Akt-mTOR-S6 pathway, or IL-6 to stimulate STAT3 phosphorylation. The cells were then fixed and permeabilized as described, and then stained for CD3, CD4 (STAT3 experiments), phosphorylated STAT3 Y705, and phosphorylated S6.

Series [2] concerns the target STAT3 Ser727 and Y705 motifs (Homo sapiens, UniProt P40763). Particulars: literature; cited from earlier work.
In a further series the test system is STAT5. Description: STAT5 phosphorylation in CD4+ T cells of 5 day allo-MLRs without exogenous cytokine. Type of series: cell-based, human. How it is done:
No exogenous cytokine was added. DC-allosensitized T cells were harvested on day 5. […] The ratio of CD4^+, pSTAT5^Bright to CD4^+, pSTAT3^+ T cells was calculated by percentage of phosphorylation.

In another series the test system is S6 ribosomal protein. Description: Akt-mTOR-S6 signaling in IL-2-stimulated donor T-cells. Type of series: cell-based, human. To be noted: S3I-201 50 uM, 4 hours, IL-2 pulse. The method, then: as §1
Setting [3] is: S3I-201 50 or 100 μM, 5 day allo-MLR.

Sequence of STAT3 Ser727 and Y705 motifs (P40763 whole entry): as above

Consider `Cc1ccc(S(=O)(=O)OCC(=O)Nc2ccc(C(=O)O)c(O)c2)cc1` [S3I-201], for which the “absolute number of iTregs” value in the series on iTregs and Tconvs (S3I-201 25 μM and 50 μM, dose-dependent, day 5) is listed as “significantly increased”. The “number of iTregs compared with DMSO” value with iTregs and Tconvs (S3I-201 100 μM) is listed as “significantly reduced”. Besides, in the series with iTregs and Tconvs (S3I-201, day 5), the “number of alloreactive Tconvs” value is listed as “dramatically reduced” and the “ratio of iTregs to Tconvs” value is recorded as “increased ratio”. In addition, in the series with CD8+ T cells, the “CTL potential vs DMSO control” value is “not significantly different”; the “cytolytic potential by CD107a expression and intracellular IFN-γ production” value is “intact cytolytic potential”. For the same molecule, the “reduction in T-cell proliferation” value in series [1] (S3I-201 50 μM added once day 0, readout day 5) came to 50%. For the same molecule, in series [1] (S3I-201 100 μM), the T-cell proliferation entry is “complete impairment”. For the same molecule, the T-cell proliferation result in series [1] (S3I-201 1 or 10 μM) was “little effect”. In addition, the “T-cell proliferation in allo-MLRs compared with DMSO” value in series [1] (S3I-201 50 or 100 μM, FIG. 1B) is recorded as “significantly reduced”. Moreover, the T-cell viability entry in the series on T cells (S3I-201 50 μM) is given as “preserved”. Further, in the series on T cells (S3I-201 100 μM), the “T-cell viability (viability staining)” value was “toxicity”. The “IL-6-mediated STAT3 phosphorylation of Y705” value at STAT3 Y705 is recorded as “significantly decreased”. In series [2], the “phosphorylation of the STAT3 Ser727 motif” value is on record as “much less” and the “phosphorylation of the STAT3 Y705 motif” value is “predominantly inhibits”. Moreover, in the series on STAT5 (S3I-201 100 μM), the “CD4+, pSTAT5Bright population” value is “trend in reduced STAT5 phosphorylation”. Moreover, in the series with STAT5 (setting [3]), the “STAT5 activation in response to DC allostimuli” value is given as “preserved” and the “ratio of CD4+, pSTAT5Bright to CD4+, pSTAT3+ T cells” value was “robust, dose-dependent polarization”. For the same molecule, in the series on STAT5 (S3I-201 vs DMSO, 5 day allo-MLR), the “CD4+, pSTAT5Bright population” value is recorded as “maintained”. The S6 activation entry in the series on S6 ribosomal protein is “modestly reduced”.
